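Five concentrations, 48 hours, 96-well plates. TGI: concentration producing complete growth inhibition.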
What was measured:
Test in all cases: NCI-60 cell line screen, 48 h
XF 498 CNS = system: XF 498 CNS
RXF-631 renal = system: RXF-631 renal
KM20L2 colon = system: KM20L2 colon
DLD-1 colon = system: DLD-1 colon
LXFL 529 NSCLC = system: LXFL 529 NSCLC
M19-MEL melanoma = system: M19-MEL melanoma
DMS 114 small cell lung = system: DMS 114 small cell lung
HOP-18 NSCLC = system: HOP-18 NSCLC
DMS 273 small cell lung = system: DMS 273 small cell lung

SMILES	TGI (XF 498 CNS) [µM]	TGI (RXF-631 renal) [µM]	TGI (KM20L2 colon) [µM]	TGI (DLD-1 colon) [µM]	TGI (LXFL 529 NSCLC) [µM]	TGI (M19-MEL melanoma) [µM]	TGI (DMS 114 small cell lung) [µM]	TGI (HOP-18 NSCLC) [µM]	TGI (DMS 273 small cell lung) [µM]
CCOC(=O)N1c2c(ccn2C)-c2ccn(C)c2N1C(=O)OCC	30.7	45.8	27.8	29.5	30.9	80			
COc1ccccc1C(O)(c1ccccc1)C(O)(c1ccccc1)c1ccccc1OC (stereo unspecified)	> 100	> 100	> 100	> 100	> 100	> 100	> 100	> 100	> 100
C/C=C1\C=C(OC)CN(CCc2c[nH]c3ccccc23)C1	> 100		> 100	> 100	> 100	> 100	> 100		> 100
Cc1ccccc1NC(=O)c1c(C)oc2c1C(=O)c1ccccc1C2=O	> 70		> 100	> 68.6	> 55.9	26.6	68		> 100
O=C1Cc2c([nH]c3ccccc23)-c2ccccc2N1	91.8		50.7	> 100	> 100	> 100		> 100	> 100
Cc1nc(C(N)=S)sc1C(=O)CC(=O)C(=O)Nc1ccccc1[N+](=O)[O-]		> 100	> 100	> 100	> 100	> 100	> 100	> 100	> 100
O=C1[C@H]2ON(c3ccccc3)C(c3ccccc3)[C@H]2C(=O)N1c1ccc(Cc2ccc(N3C(=O)[C@@H]4ON(c5ccccc5)C(c5ccccc5)[C@@H]4C3=O)cc2)cc1 (stereo partly specified)		> 100	> 100	> 100	> 100		> 100	> 100	> 100
Cc1ccc(/C(O)=C/c2nc3c(nc2NC24CC5CC(CC(C5)C2)C4)c(=O)oc2ccccc23)cc1	> 100		> 100	> 100	> 100	> 100	> 100		> 100
CC(=O)NC1=C(NC(C)(C)C)C(=O)c2ccccc2C1=O	23.1		38	34.3	31.7	28.7	54.3	28.4	45.4
